Source: publication PMC10674565 (Pharmaceuticals, 2023)

Key:
[1] = set-up: method as in earlier work; conditions: liver metabolites of EMHPS; cited from earlier work
SLCO1B1 = target: T1, SLCO1B1 (Homo sapiens, UniProt Q9Y6L6); assay: Inhibition of SLCO1B1-mediated uptake of atorvastatin in HEK293-SLCO1B1 cells; format: in vitro ADME; set-up: The SLCO1B1 gene was obtained via synthesis and was cloned into the pEGFP-N1 vector; expressed in transfected cells; host or cells: HEK293
T1 sequence (Q9Y6L6 1-691): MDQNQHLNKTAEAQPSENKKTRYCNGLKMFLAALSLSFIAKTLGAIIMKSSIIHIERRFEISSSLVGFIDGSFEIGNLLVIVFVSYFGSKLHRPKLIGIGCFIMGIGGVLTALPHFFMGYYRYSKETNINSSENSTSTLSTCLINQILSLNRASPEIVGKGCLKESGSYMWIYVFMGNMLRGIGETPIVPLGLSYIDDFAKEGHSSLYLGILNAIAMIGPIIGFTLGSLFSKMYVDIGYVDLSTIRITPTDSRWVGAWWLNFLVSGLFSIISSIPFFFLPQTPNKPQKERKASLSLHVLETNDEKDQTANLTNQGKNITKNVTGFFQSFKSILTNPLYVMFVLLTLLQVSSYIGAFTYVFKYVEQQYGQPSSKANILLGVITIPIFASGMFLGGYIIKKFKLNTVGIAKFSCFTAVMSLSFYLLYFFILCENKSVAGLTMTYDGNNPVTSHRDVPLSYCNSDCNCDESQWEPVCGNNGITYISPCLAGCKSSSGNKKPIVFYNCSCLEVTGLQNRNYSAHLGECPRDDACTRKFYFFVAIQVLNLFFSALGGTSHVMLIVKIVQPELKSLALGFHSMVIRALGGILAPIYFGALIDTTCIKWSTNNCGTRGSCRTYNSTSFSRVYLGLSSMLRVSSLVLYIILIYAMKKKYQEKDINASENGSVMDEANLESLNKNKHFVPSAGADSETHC
Method: As a positive inhibition control, rifampicin at similar concentrations was used. Three independent experiments were performed. […] Proteins were precipitated by adding acetonitrile in a 1:1 ratio to the sample. […] The mobile phase gradient program was as follows: 0-0.6 min-35% A and 65% B, 0.6-5.0 min-5% A and 95% B, 5.0-8.0 min-35% A and 65% B. The flow rate and the column temperature were maintained at 300 μL/min and 35 °C. Aliquots (2 μL) of the extracted samples were injected.

ABCB1 = ABCB1 (Homo sapiens, UniProt P08183); assay: Effect on ABCB1-mediated transport of fexofenadine through the Caco-2 cells monolayer; conditions: all tested concentrations (1–200 µM), Caco-2 monolayer
Method: Transport experiments were carried out in Transwell® systems (12 mm Transwell® with 0.4 µm Pore Polycarbonate Membrane Insert, Sterile, «Corning»). The Transwell® system consists of two chambers, apical and basolateral. […] The medium was changed every 2–3 days. The apical and basolateral chambers represent the luminal and blood/mesenteric lymph sides of the gastrointestinal tract, respectively.
The transepithelial electrical resistance (TEER) across the cell monolayers was monitored using a Millicell-ERS (electrical resistance system) to assess cell monolayer integrity. For transport studies, only monolayers with a TEER > 500 Ω cm^2 were used.
To study the roles of different parts of the EMHPS molecule for its action on ABCB1, experiments with succinic acid were also carried out.
Prior to the transport experiments, the culture media was aspirated, and the monolayers were washed twice with transport medium and preincubated with EMHPS, succinic acid, or verapamil for 30 min.
The data are presented as the mean ± SD from three monolayers.
The resulting sample of the transport medium (50 μL) was diluted in 150 μL of the mobile phase, and 100 μL of the resulting solution was injected into the chromatograph. A Phenomenex Synergi 4u Polar-RP 80A (250 × 4.6) chromatographic column was used for analysis. The separation temperature was 35 °C; the flow rate was 1 mL/min. Composition of the mobile phase: acetonitrile (128 mL), deionized water (267.4 mL), acetic acid (6.33 mL), triethylamine to pH = 6.7. […] Detection was carried out at a wavelength of 220 nm.
Half maximal inhibitory concentration (IC50) values were determined through nonlinear regression based on the three-parameter logistic function.

[2] = human, HEK293-SLCO1B1 cells, pH 7.4, probe atorvastatin 1 µM

Chain of ABCB1 (P08183 whole entry): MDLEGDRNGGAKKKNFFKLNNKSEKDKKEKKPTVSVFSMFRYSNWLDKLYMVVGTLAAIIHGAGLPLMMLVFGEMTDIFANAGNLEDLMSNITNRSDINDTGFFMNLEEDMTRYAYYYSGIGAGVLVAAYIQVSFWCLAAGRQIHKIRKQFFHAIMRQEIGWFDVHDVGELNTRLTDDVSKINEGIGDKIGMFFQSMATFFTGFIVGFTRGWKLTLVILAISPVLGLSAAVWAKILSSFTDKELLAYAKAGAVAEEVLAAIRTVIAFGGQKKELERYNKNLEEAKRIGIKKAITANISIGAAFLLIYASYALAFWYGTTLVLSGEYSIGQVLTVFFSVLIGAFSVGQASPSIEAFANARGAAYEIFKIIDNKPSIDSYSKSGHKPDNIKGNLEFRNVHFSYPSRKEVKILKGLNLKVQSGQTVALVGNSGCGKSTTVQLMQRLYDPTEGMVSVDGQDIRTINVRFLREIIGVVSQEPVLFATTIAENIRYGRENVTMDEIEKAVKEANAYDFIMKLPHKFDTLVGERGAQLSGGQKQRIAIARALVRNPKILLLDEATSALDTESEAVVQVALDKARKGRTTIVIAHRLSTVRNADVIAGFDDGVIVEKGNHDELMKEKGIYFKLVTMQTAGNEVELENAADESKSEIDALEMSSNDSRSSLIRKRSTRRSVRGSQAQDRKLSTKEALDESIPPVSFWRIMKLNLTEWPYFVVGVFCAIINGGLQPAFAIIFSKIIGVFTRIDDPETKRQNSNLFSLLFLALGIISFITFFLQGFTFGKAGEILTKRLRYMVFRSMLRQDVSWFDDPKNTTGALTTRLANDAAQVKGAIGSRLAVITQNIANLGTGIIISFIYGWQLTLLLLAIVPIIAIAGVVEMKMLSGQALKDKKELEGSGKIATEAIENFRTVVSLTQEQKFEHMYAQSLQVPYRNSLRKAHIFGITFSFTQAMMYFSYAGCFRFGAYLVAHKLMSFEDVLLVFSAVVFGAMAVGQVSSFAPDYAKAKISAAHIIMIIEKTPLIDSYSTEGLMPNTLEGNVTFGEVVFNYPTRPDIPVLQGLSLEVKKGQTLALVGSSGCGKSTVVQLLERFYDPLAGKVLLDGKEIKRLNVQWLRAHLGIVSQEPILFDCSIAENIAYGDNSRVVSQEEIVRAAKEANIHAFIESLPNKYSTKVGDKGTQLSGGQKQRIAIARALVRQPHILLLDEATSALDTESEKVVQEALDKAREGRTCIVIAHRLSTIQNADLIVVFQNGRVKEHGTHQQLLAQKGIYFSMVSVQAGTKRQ

## CCc1nc(C)ccc1O[C@@H]1O[C@H](C(=O)O)[C@@H](O)[C@H](O)[C@H]1O [2-ethyl-6-methyl-3-hydroxypyridine glucuronide]
[1]
  pharmacological activity: no pharmacological activity

## CCc1nc(C)ccc1O.O=P(O)(O)O [2-ethyl-6-methyl-3-hydroxypyridine phosphate]
[1]
  pharmacological activity: no pharmacological activity

## CO[C@H]1/C=C/O[C@@]2(C)Oc3c(C)c(O)c4c(O)c(c(/C=N/N5CCN(C)CC5)c(O)c4c3C2=O)NC(=O)/C(C)=C\C=C\[C@H](C)[C@H](O)[C@@H](C)[C@@H](O)[C@@H](C)[C@H](OC(C)=O)[C@@H]1C [rifampicin]
SLCO1B1
  IC50: 2.51 ± 1.35 µM
SLCO1B1; [2]
  inhibition at 100 µM: 91.2%
  inhibition at 500 µM: 95.4%

## O=C(O)CCC(=O)O [succinic acid]
SLCO1B1; all tested concentrations (1–500 µM), uptake of 1 µM atorvastatin
  effect on SLCO1B1 activity: did not have a significant effect
ABCB1
  effect on Papp b-a, Papp a-b, and ER of fexofenadine transport: did not have a significant effect
